Measured values from patent US7084253B2, “Protease-activated receptor PAR4 (ZCHEMR2)” (ZymoGenetics, Inc., priority 1998, dated 2006).
“Also recorded” adds a separate entry of the source. Read-outs that look alike come from different tables or passages of the source. No end group written: not given here.

Experiments:
[1] = target: T1, PAR3 (Homo sapiens, UniProt O00254); details: comparison with PAR4; read-out: half-maximal concentration (EC50) for PAR3; cited from earlier work
T1 sequence (O00254 22-374): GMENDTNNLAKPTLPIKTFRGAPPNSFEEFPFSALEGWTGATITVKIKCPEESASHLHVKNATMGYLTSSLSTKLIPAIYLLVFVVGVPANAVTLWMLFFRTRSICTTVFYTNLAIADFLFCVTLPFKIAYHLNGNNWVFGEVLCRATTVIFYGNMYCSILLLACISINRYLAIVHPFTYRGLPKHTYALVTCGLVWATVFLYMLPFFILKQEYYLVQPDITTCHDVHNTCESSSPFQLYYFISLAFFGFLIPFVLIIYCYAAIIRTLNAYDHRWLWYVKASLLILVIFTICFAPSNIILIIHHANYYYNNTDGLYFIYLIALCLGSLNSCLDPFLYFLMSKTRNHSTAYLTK

[2] = target: T2, PAR4 (Homo sapiens, UniProt Q96RI0, A120T); assay: phosphoinositide hydrolysis assay in COS cells transiently transfected with PAR4 cDNA; type: cell-based; details: for response of PAR4-transfected COS cells (phosphatidylinositol 4,5 diphosphate hydrolysis): protease at 100 nM; for activity against PAR4 (other proteases): concentration not given
T2 construct: expressed in transfected cells; host or cells: COS-7
T2 sequence (Q96RI0 18-385 A120T): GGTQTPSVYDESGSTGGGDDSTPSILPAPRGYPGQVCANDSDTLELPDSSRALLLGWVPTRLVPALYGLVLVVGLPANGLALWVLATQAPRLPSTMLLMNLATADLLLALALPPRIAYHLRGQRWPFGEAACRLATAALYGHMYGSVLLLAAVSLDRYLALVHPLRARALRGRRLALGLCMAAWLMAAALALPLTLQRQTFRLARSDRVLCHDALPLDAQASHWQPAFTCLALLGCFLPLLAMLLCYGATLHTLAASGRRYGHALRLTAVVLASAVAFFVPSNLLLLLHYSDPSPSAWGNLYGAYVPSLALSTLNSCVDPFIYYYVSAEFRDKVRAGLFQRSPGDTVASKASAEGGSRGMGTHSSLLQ
Experimental: (§1) COS cells were transiently transfected with PAR4 cDNA, and examined for responses to thrombin and trypsin. Briefly, for the phosphoinositide hydrolysis assay, COS-7 cells were grown in Dulbecco's modified Eagle's medium (DMEM; Gibco/BRL, Gaithersburg, Md.) with 10% fetal bovine serum (FBS). Cells were plated at 3.5×10^5/35-mm plate one day before transfection. Two μg of DNA were transfected using 12 μl of lipofectAMINE (Gibco/BRL) for 5 h. The cells were incubated overnight in DMEM with 10% FBS, and then split into triplicate 35-mm wells. Forty-eight hours after transfection, the cells were loaded with 2 μCi/ml [^3H]myo-inositol (Amersham, Arlington Heights, Ill.) in serum-free DMEM and incubated overnight at 37° C. Cells were washed and treated with 20 mM LiCl in DMEM, with or without protease or peptide activators added at various concentrations. Cells were then incubated for 2 h at 37° C. and extracted with 750 μl of 20 mM formic acid for 30 min on ice. The inositol mono-, bis-, and trisphosphates were purified through a one ml AG 1-X8 anion-exchange resin (Bio-Rad, Hercules, Calif.) (T. Nanevicz et al., J. Biol. Chem. 271:702–06, 1996), and quantitated by scintillation counting. In each hydrolysis assay, surface expression levels of receptors were determined in triplicate in parallel cultures.

[3] = target: T3, PAR1 (Homo sapiens, UniProt P25116); assay: thrombin-stimulated phosphoinositide hydrolysis, PAR1 (comparison); type: cell-based; details: comparison with PAR4; read-out: half-maximal concentration (EC50) for PAR1
T3 construct: expressed in transfected cells; COS-7 inferred from the assay of b141
T3 sequence (P25116 22-425): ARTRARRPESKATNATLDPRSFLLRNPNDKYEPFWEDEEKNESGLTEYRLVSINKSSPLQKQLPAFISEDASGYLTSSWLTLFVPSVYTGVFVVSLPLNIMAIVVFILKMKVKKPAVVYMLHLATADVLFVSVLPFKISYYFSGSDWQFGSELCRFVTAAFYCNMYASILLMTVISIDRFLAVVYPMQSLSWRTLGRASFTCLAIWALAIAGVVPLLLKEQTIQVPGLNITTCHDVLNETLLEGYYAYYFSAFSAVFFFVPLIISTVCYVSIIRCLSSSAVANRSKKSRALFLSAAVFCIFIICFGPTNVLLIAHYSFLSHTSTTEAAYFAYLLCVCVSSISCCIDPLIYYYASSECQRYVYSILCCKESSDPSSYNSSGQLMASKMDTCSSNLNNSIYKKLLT
Experimental: For comparative purposes, PAR1 protein was prepared. Briefly, the cDNA coding for PAR1 was isolated from a placental cDNA library by PCR. The PAR1 DNA sequence obtained was essentially identical to that previously reported, except for nucleotides 711–712 (CG→GC) and nucleotides 1091–1092 (CG→GC). […] These amino acid changes were confirmed by sequence analysis of the corresponding regions in the genomic DNA coding for PAR1.
as §1, with “Forty-eight hours after transfection, the cells were loaded with 2 μCi/ml [^3H]myo-inositol (Amersham, Arlington Heights, Ill.) in serum-free DMEM and incubated overnight at 37° C. Cells were washed and treated with 20 mM LiCl in DMEM, with or without protease or peptide activators added at various concentrations. Cells were then incubated for 2 h at 37° C. and extracted with 750 μl of 20 mM formic acid for 30 min on ice.” left out

[4] = target: T4, PAR4 (R68A) (Homo sapiens, UniProt Q96RI0, A120T/R68A); assay: phosphatidylinositol 4,5 diphosphate hydrolysis assay in COS cells expressing PAR4 mutant R68A; type: cell-based; details: Arg 68 to Ala, extracellular amino-terminal region
T4 construct: expressed in transfected cells; host or cells: COS cells (inferred from the R47A sentence of the same paragraph)
T4 sequence (Q96RI0 18-385 R68A/A120T): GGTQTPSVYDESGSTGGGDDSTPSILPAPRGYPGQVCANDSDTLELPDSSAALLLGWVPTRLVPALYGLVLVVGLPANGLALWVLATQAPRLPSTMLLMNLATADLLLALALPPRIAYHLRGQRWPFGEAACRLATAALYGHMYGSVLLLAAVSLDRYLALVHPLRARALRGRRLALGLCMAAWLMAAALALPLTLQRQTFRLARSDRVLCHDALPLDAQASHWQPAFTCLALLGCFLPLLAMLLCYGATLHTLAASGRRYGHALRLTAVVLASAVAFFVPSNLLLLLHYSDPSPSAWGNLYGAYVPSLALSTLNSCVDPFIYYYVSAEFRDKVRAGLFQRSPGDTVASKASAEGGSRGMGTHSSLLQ
Experimental: as §1, with “cultures. […]” for “cultures.”

[5] = target: T5, PAR4 (R47A) (Homo sapiens, UniProt Q96RI0, A120T/R47A); assay: phosphoinositide hydrolysis in COS cells expressing cleavage site mutant PAR4 (R47A); type: cell-based; details: Ala for Arg at residue 47
T5 construct: expressed in transfected cells; host or cells: COS cells
T5 sequence (Q96RI0 18-385 R47A/A120T): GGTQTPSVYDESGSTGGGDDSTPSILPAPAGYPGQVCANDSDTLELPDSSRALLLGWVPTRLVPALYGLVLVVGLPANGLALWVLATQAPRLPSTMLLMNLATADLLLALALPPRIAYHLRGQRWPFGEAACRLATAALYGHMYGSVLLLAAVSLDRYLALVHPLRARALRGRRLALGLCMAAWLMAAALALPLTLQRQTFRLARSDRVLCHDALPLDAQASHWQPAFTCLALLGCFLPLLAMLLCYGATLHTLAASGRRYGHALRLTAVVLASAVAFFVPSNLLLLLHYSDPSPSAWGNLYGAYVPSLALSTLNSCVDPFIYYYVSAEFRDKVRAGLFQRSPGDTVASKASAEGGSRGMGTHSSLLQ
Experimental: as §1, with “cultures. […]” for “cultures.”

[6] = PAR4-transfected COS cells, read-out: half-maximal concentration (EC50), phosphoinositide hydrolysis with PAR4

Molecule: thrombin
- EC50 [1]: ~0.2 nM
- EC50 [2, 6]: 5 nM
- response of PAR4-transfected COS cells (phosphatidylinositol 4,5 diphosphate hydrolysis) [2]: did respond
- EC50 [3]: ~0.2 nM
- effect of R68A mutation on PAR4 activation by protease [4]: no effect
- response of putative cleavage site mutant PAR4 (R47A) to protease [5]: failed to respond; also recorded: only activate the wild-type PAR4

Molecule: Chymotrypsin
- activity against PAR4 (other proteases) [2]: failed to activate

Molecule: trypsin: serine protease, activator of PAR4
- EC50 [2, 6]: 5 nM
- response of PAR4-transfected COS cells (phosphatidylinositol 4,5 diphosphate hydrolysis) [2]: did respond
- effect of R68A mutation on PAR4 activation by protease [4]: no effect
- response of putative cleavage site mutant PAR4 (R47A) to protease [5]: failed to respond; also recorded: only activate the wild-type PAR4

Molecule: SFLLRN [reference compound]
- activity toward PAR4 of PAR1 activating peptide ([2]; concentration effective for PAR1 activation): no activity

Molecule: urokinase
- activity against PAR4 (other proteases) [2]: little or no activity

Molecule: elastase
- activity against PAR4 (other proteases) [2]: failed to activate

Molecule: GYPGQV [GYPGQV]
- EC50 [2]: ~100000 nM

B1: plasmin: arginine/lysine-specific serine protease (protein, UniProt P00747 20-580; P00747 581-810, looked up)
Plasmin heavy chain A: EPLDDYVNTQGASLFSVTKKQLGAGSIEECAAKCEEDEEFTCRAFQYHSKEQQCVIMAENRKSSIIIRMRDVVLFEKKVYLSECKTGNGKNYRGTMSKTKNGITCQKWSSTSPHRPRFSPATHPSEGLEENYCRNPDNDPQGPWCYTTDPEKRYDYCDILECEEECMHCSGENYDGKISKTMSGLECQAWDSQSPHAHGYIPSKFPNKNLKKNYCRNPDRELRPWCFTTDPNKRWELCDIPRCTTPPPSSGPTYQCLKGTGENYRGNVAVTVSGHTCQHWSAQTPHTHNRTPENFPCKNLDENYCRNPDGKRAPWCHTTNSQVRWEYCKIPSCDSSPVSTEQLAPTAPPELTPVVQDCYHGDGQSYRGTSSTTTTGKKCQSWSSMTPHRHQKTPENYPNAGLTMNYCRNPDADKGPWCFTTDPSVRWEYCNLKKCSGTEASVVAPPPVVLLPDVETPSEEDCMFGNGKGYRGKRATTVTGTPCQDWAAQEPHRHSIFTPETNPRAGLEKNYCRNPDGDVGGPWCYTTNPRKLYDYCDVPQCAAPSFDCGKPQVEPKKCPGR
Plasmin light chain B: VVGGCVAHPHSWPWQVSLRTRFGMHFCGGTLISPEWVLTAAHCLEKSPRPSSYKVILGAHQEVNLEPHVQEIEVSRLFLEPTRKDIALLKLSSPAVITDKVIPACLPSPNYVVADRTECFITGWGETQGTFGAGLLKEAQLPVIENKVCNRYEFLNGRVQSTELCAGHLAGGTDSCQGDSGGPLVCFEKDKYILQGVTSWGLGCARPNKPGVYVRVSRFVTWIEGVMRNN
modifications: Plasmin
notes: arginine/lysine-specific serine protease
- activity against PAR4 (other proteases) [2]: little or no activity
